According to ChEMBL document CHEMBL5360663, “Discovery of a Novel Photocaged PI3K Inhibitor Capable of Real-Time Reporting of Drug Release” (ACS Med Chem Lett, 2023):
Active and inactive are the calls of the source. The rule behind the calls is not given here.

Tests used:
HGC-27 [1] = test: Inhibition of PI3K in human HGC-27 cells assessed as reduction in S6RP phosphorylation at S240 and 244 residue at 10 nM pre-treated with compound followed by UV irradiation for 5 mins measured after 24 hrs by Western blotting analysis; format: cell-based; details: time 1445.0 min
SK-MEL-2 [2] = test: Antiproliferative activity against human SK-MEL-2 cells assessed as inhibition of cell growth measured after 72 hrs by CTG assay; format: functional, cell-based; details: SK-MEL-2, 72 h
U-87 MG [3] = test: Antiproliferative activity against human U-87 MG cells assessed as inhibition of cell growth measured after 72 hrs by CTG assay; format: functional, cell-based, U-87MG ATCC
HGC-27 [4] = test: Inhibition of PI3K in human HGC-27 cells assessed as reduction in AKT phosphorylation at S473 residue at 10 nM pre-treated with compound followed by UV irradiation for 5 mins measured after 24 hrs by Western blotting analysis; format: cell-based; details: time 1445.0 min
MCF7 [5] = test: Antiproliferative activity against human MCF7 cells assessed as inhibition of cell growth measured after 72 hrs by CTG assay; format: functional, cell-based; details: MCF7, 72 h
HGC-27 [6] = test: Inhibition of colony formation in human HGC-27 cells at 10 nM pre-treated with compound followed by UV irradiation for 5 mins measured after 3 days by crystal violet staining based analysis; format: functional, cell-based; details: time 4325.0 min
HGC-27 [7] = test: Antiproliferative activity against human HGC-27 cells assessed as inhibition of cell growth measured after 72 hrs by CTG assay; format: functional, cell-based; details: HGC-27, 72 h
[8] = biological target: Phosphatidylinositol 4,5-bisphosphate 3-kinase catalytic subunit alpha isoform (Homo sapiens, UniProt P42336); test: Inhibition of PI3Kalpha (unknown origin) using PIP2 as substrate in presence of ATP by Kinase-Glo assay
SK-MEL-5 [9] = test: Antiproliferative activity against human SK-MEL-5 cells assessed as inhibition of cell growth measured after 72 hrs by CTG assay; format: functional, cell-based; details: SK-MEL-5, 72 h
[10] = Antiproliferative activity against human U373 cells assessed as inhibition of cell growth measured after 72 hrs by CTG assay; format: functional, cell-based; details: U373 MG
SK-MEL-2 [11] = test: Antiproliferative activity against human SK-MEL-2 cells assessed as inhibition of cell growth pre-treated with compound followed by UV irradiation for 5 mins measured after 72 hrs by CTG assay; format: functional, cell-based; details: SK-MEL-2, light or radiation study
HGC-27 [12] = test: Photorelease activity in human HGC-27 cells assessed as increase in intracellular fluorescence intensity at 0.4 to 10 uM incubated for 2 hrs in presence of UV irradiation for 5 to 30 mins by fluorescence based microplate reader analysis; format: ADME, cell-based; details: hgc-27, 2 h, TDE = time-dependent effect, dose 0.4-10 µM
MCF7 [13] = test: Antiproliferative activity against human MCF7 cells assessed as inhibition of cell growth pre-treated with compound followed by UV irradiation for 5 mins measured after 72 hrs by CTG assay; format: functional, cell-based; details: MCF7, light or radiation study
[14] = Selectivity ratio of IC50 for antiproliferative activity against human SK-MEL-2 cells to IC50 for antiproliferative activity against human SK-MEL-2 cells in presence of UV irradiation; format: functional
HGC-27 [15] = test: Photorelease activity in human HGC-27 cells assessed as increase in intracellular fluorescence intensity incubated for 2 hrs in presence of UV irradiation for 5 to 30 mins by fluorescence based microplate reader analysis; format: ADME, cell-based; details: hgc-27, 2 h, dose 0.4-10 µM
[16] = Selectivity ratio of IC50 for antiproliferative activity against human HGC-27 cells to IC50 for antiproliferative activity against human HGC-27 cells in presence of UV irradiation; format: functional
[17] = Selectivity ratio of IC50 for antiproliferative activity against human MCF7 cells to IC50 for antiproliferative activity against human MCF7 cells in presence of UV irradiation; format: toxicity, cell-based; details: read-out: Ratio IC50
HGC-27 [18] = test: Antiproliferative activity against human HGC-27 cells assessed as inhibition of cell growth pre-treated with compound followed by UV irradiation for 5 mins measured after 72 hrs by CTG assay; format: functional, cell-based; details: HGC-27, light or radiation study
U-87 MG [19] = test: Antiproliferative activity against human U-87 MG cells assessed as inhibition of cell growth pre-treated with compound followed by UV irradiation for 5 mins measured after 72 hrs by CTG assay; format: functional, cell-based, U-87MG ATCC; details: light or radiation study
[20] = Selectivity ratio of IC50 for antiproliferative activity against human U373 cells to IC50 for antiproliferative activity against human U373 cells in presence of UV irradiation; format: functional
HGC-27 [21] = test: Photorelease activity in human HGC-27 cells assessed as release of 7-hydroxy-3-(hydroxymethyl)-2H-chromen-2-one incubated for 2 hrs by confocal microscopic analysis; format: ADME, cell-based; details: hgc-27, 2 h
[22] = Antiproliferative activity against human U373 cells assessed as inhibition of cell growth pre-treated with compound followed by UV irradiation for 5 mins measured after 72 hrs by CTG assay; format: functional, cell-based; details: U373 MG, light or radiation study
[23] = Selectivity ratio of IC50 for antiproliferative activity against human U-87 MG cells to IC50 for antiproliferative activity against human U-87 MG cells in presence of UV irradiation; format: functional, U-87MG ATCC
SK-MEL-5 [24] = test: Antiproliferative activity against human SK-MEL-5 cells assessed as inhibition of cell growth pre-treated with compound followed by UV irradiation for 5 mins measured after 72 hrs by CTG assay; format: functional, cell-based; details: SK-MEL-5, light or radiation study
[25] = Selectivity ratio of IC50 for antiproliferative activity against human SK-MEL-5 cells to IC50 for antiproliferative activity against human SK-MEL-5 cells in presence of UV irradiation; format: functional
HGC-27 [26] = test: Photorelease activity in human HGC-27 cells assessed as release of 7-hydroxy-3-(hydroxymethyl)-2H-chromen-2-one incubated for 2 hrs in presence of UV irradiation by confocal microscopic analysis; format: ADME, cell-based; details: hgc-27, 2 h, dose 1-10 µM

Phosphatidylinositol 4,5-bisphosphate 3-kinase catalytic subunit alpha isoform, sequence (P42336 whole entry, canonical isoform): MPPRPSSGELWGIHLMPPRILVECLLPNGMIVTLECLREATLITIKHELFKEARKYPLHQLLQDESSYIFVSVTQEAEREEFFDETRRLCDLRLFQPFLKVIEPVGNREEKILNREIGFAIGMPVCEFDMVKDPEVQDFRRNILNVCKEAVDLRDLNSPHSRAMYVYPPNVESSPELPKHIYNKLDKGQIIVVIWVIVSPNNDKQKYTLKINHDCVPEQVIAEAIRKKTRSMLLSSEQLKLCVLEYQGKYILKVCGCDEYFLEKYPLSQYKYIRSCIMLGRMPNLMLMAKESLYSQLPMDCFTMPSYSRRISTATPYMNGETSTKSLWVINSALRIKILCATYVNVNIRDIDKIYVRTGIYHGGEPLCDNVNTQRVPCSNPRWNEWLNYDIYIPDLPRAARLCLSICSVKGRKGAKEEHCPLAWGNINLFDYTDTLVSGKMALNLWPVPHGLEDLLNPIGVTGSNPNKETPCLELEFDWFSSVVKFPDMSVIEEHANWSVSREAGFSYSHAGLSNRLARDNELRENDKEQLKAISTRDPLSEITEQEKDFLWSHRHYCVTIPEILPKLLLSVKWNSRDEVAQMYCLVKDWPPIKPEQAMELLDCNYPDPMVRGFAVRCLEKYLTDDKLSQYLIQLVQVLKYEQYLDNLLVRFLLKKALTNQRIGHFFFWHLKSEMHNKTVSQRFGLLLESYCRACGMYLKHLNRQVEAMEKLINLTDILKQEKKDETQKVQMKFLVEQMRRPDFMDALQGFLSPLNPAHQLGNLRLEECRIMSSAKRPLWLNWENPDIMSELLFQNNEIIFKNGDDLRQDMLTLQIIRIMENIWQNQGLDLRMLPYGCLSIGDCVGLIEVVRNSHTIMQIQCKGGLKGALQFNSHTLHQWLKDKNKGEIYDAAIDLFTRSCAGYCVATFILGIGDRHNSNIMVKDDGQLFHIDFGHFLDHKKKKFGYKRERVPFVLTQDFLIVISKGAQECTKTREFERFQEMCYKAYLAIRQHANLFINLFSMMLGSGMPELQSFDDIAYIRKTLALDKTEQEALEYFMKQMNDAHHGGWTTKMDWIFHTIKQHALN

Compound	inhibition (HGC-27 [1])	IC50 (SK-MEL-2 [2]) [µM]	IC50 (U-87 MG [3]) [µM]	inhibition (HGC-27 [4])	IC50 (MCF7 [5]) [µM]	Activity (HGC-27 [6])	IC50 (HGC-27 [7]) [µM]	IC50 [8] [µM]	IC50 (SK-MEL-5 [9]) [µM]	IC50 [10] [µM]	further results
COc1ncc(-c2cc(OC3CCOCC3)c3ncnc(C)c3c2)cc1NS(=O)(=O)c1ccc(F)cc1F	Active	0.19	0.05	Active	0.282	Active	0.0018	0.00017	0.065	0.057	
COc1ncc(-c2cc(OC3CCOCC3)c3ncnc(C)c3c2)cc1N(Cc1cc2ccc(O)cc2oc1=O)S(=O)(=O)c1ccc(F)cc1F	Active	0.13	0.011	Active	0.295	Active	0.0039	0.00207	0.19	0.025	
COc1cc(COc2ccc3cc(CN(c4cc(-c5cc(OC6CCOCC6)c6ncnc(C)c6c5)cnc4OC)S(=O)(=O)c4ccc(F)cc4F)c(=O)oc3c2)c([N+](=O)[O-])cc1OC	Active	2.81	3.26	Active	> 10	Active	0.701	0.0189	6.56	> 10	IC50 (SK-MEL-2 [11]): 0.143 µM; Activity (HGC-27 [12]): Tde; IC50 (MCF7 [13]): 0.428 µM; Ratio IC50 [14]: 20; Activity (HGC-27 [15]): Dose-Dependent Effect; Ratio IC50 [16]: 189; selectivity ratio [17]: > 23; IC50 (HGC-27 [18]): 0.0037 µM; IC50 (U-87 MG [19]): 0.052 µM; Ratio IC50 [20]: >217; Activity (HGC-27 [21]): Not Active; IC50 [22]: 0.046 µM; Ratio IC50 [23]: 63; IC50 (SK-MEL-5 [24]): 0.434 µM; Ratio IC50 [25]: 15; Activity (HGC-27 [26]): Dose-Dependent Effect
